Reference: patent US20200404916A1, “METHOD OF REDUCING CROP DAMAGE” (BAYER AKTIENGESELLSCHAFT, priority 2018, published 2020)

What was measured:
[1] = test system: winter wheat, TRZAW; test: Post-emergence greenhouse pot test, visual scoring of crop damage on winter wheat; assay type: in vivo
Source text: Post-emergence application was done when the plants had reached growth stage BBCH11 (BBCH is the international coding system for the growth stage of crops and weeds).
The safener (mefenpyr-diethyl) was formulated as wettable powder (WP).
The compounds were sprayed onto the green parts of the plants as an aqueous suspension at an equivalent water application rate of 300 l/ha.
(§1) The combination of herbicide and safener was applied as a tank mix.
(§2) After application, the test plants were kept in the greenhouse under good growth conditions.
(§3) Values in the table below are mean values from at least 3 replicates.
(§4) For the safener seed treatment, sufficient seeds were weighed into screw top glass bottles approximately twice the volume of the seeds.
(§5) The safener (mefenpyr-diethyl, formulated as suspension concentrate (SC)) was weighed out so that the required rates (g a.i./kg seed) would be obtained, dissolved in water (1 ml water per 10 g of seeds), and added to the seeds to produce a slurry.
(§6) The bottles were capped and then placed in an overhead shaker (set at medium speed for up to 1 hour) so that the seeds were evenly coated with the slurry. The bottles were uncapped and the seeds were sown as described above.
(§7) For the seed treatment process, the blind formulation (the SC formulation without the safener mefenpyr-diethyl) was used as seed treatment as described above.
Post-emergence application of the herbicide was done when the plants had reached growth stage BBCH11.
Post-emergence application was done when the plants had reached growth stage BBCH11.

[2] = test system: winter wheat, TRZAW; test: Pre-emergence greenhouse pot test, visual scoring of crop damage on winter wheat; assay type: in vivo
Procedure: as §4, §5, §6, §7
The compounds were sprayed to the soil surface as an aqueous suspension at an equivalent water application rate of 300 l/ha.
as §1, §2, §3

Compound: CCOC(=O)C1=NN(c2ccc(Cl)cc2Cl)C(C)(C(=O)OCC)C1 (stereo not drawn) [Safener in tank mix, ethyl 1-(2,4-dichlorophenyl)-5-(ethoxycarbonyl)-5-methyl-2-pyrazoline-3-carboxylate]
- % crop damage ([1]; safener 200 g/ha in tank mix alone, post-emergence (BBCH11), no herbicide, 14 days after application): 5%
- % crop damage ([1]; safener seed treatment 0.5 g/kg alone, no herbicide, post-emergence test series): 0%
- % crop damage ([2]; safener 200 g/ha in tank mix alone, pre-emergence, no herbicide, 14 days after application): 5%
- % crop damage ([2]; safener seed treatment 0.5 g/kg alone, no herbicide, pre-emergence test series): 5%

Compound: Diflufenican [Herbicide post-em.]
- % crop damage ([1]; herbicide 200 g/ha post-emergence (BBCH11), no safener, 14 days after application, mean of at least 3 replicates): 20%
- % crop damage ([2]; herbicide 200 g/ha pre-emergence, no safener, 14 days after application, mean of at least 3 replicates): 25%
